Experimental data: US9185889B2, “CD4 T-cells and CD8zeta cells involved in mammalian host response to epithelial cell infections and uses thereof” (Indiana University Research and Technology Corporation, priority 2010, dated 2015)

Tests used:
C. muridarum = assay: Control of C. muridarum replication in C57epi.1 epithelial cells (IFU titered on McCoy monolayers); assay type: cell-based, Chlamydia muridarum
Procedure: To test whether the CD4 clones could control the Chlamydia replication in vitro, C57epi.1 monolayers in 48 well plates were untreated, or treated with IFN-γ (10 ηg/ml) for 14 h prior to infection or at the time of infection with 3 IFU of C. muridarum per cell. After addition of C. muridarum the plates were spun at 1200 rpm (300 g) for 30 minutes. Four hours after infection the inoculum was removed CD4 T cell clones were added in T cell media. 36 h post-infection, wells were scraped, harvested, and stored at −80° C. until C. muridarum titers determined on McCoy monolayers as previously described (Johnson, R. M., 2004). Recombinant murine IFN-γ at all concentrations tested (up to 1000 ρg/ml) had no effect on C. muridarum titrations done on the McCoy monolayers; maximum IFN-γ carryover in dilutions used for quantifying C. muridarum was <50 ρg/ml.
The panel of CD4 T cell clones was tested to determine the ability of specific clones to control C. muridarum replication in C57epi.1 epithelial cells (FIG. 2). Monolayers of C57epi.1 cells in 48 well plates (˜200,000 epithelial cells per well) were untreated or treated with IFN-γ, either 14 h prior to infection or at the time of infection, then infected with C. muridarum. Four hours post-infection the inoculating media was removed and replaced with T cell media containing CD4 T cell clones; 150, 000 T cells were added per well for an effector-to-target ratio of ˜0.75:1. 32 h later the wells were harvested with additional SPG buffer and recovered C. muridarum titered on McCoy monolayers to score replication. […] IFUs recovered from experimental wells were compared with identically treated (untreated or IFN-γ treated) parallel control wells (no T cells) to calculate % control replication. This normalization controls for the difference in C. muridarum replication in the untreated vs. IFN-γ treated C57epi.1 cells.
Referring now to FIG. 12A, the modest inhibitory effect of IFN-γ was reversed by blocking NO production with either MLA or NIL. […] According to FIG. 12B, C57.1epi cells were untreated (hatched bar) or pretreated with IFN-γ (10 ηg/ml×14 hours) in absence (black bar) or presence of MLA (gray bar) or NIL (light gray bar), and then infected with C. muridarum (3 IFU/cell). Wells were harvested at 36 hours postinfection and C. muridarum (IFU) quantified on McCoy monolayers. Comparisons were made to the infected (hatched bar).
Referring now to FIG. 19B, C. muridarum replication in epithelial cells, by an iNOS-independent mechanism, is controlled by IFN-γ-independent CD4 T cell clones. […] Wells were harvested 36 hours post infection and C. muridarum quantified on McCoy monolayers. […]

iNOS = molecular target: T1, iNOS (Mus musculus, UniProt P29477); assay: NO production measured as nitrite by infected C57epi.1 epithelial cells with iNOS inhibitors; assay type: cell-based, murine
T1 construct: C57epi.1 is a cloned oviduct epithelial cell line derived from a C57BL/6 mouse; endogenous in cells; host or cells: C57epi.1 mouse (C57BL/6) oviduct epithelial cell line, IFN-gamma pretreated and infected with C. muridarum, with or without mouse CD4 T cell clones
Procedure: Referring now to FIG. 19A, C57 epi.1 epithelial cells, untreated (hatched bars) or pretreated with IFN-γ (10 ηg/ml×14 hours) in the absence (black bars) or presence of iNOS inhibitors MLA (gray bars) or NIL (light gray bars),—were infected with C. muridarum (3 IFU/cell). Four hours later, the inocula were removed and monolayers cocilted with and with CD4 T-cell clones uvmo-1, -2, and -3 for an additional 32 hours. Supernatants were collected at 36 hour post infection, 32 hour post T cell coculture, and analyzed for NO production measured as nitrite. […] Also, MLA and NIL were effective inhibitors of NO production, as MLA blocked>90% of IFN-γ-induced NO; NIL blocked ˜60%.
Still referring to FIG. 19A, the iNOS inhibitor MLA blocks infected epithelial nitrite production to the background level of 2 uM even in the presence of exogenous interferon gamma and CD4 T cell clones uvmo-1,-2,-3. Inhibition of iNOS activity induced by interferon gamma, and interferon gamma plus CD4 T cell clones uvmo-1,-2,-3, in infected C57epi.1 murine epithelial cells using the iNOS inhibitors N^G-Monomethyl-L-arginine (MLA) and L-N^6-(1-Iminoethyl)lysine (NIL). iNOS activity was measured as nitrite in 24 h culture supernatants. […] 24 h supernatants from uninfected C57epi.1 murine epithelial cells have nitrite levels>0<1.5 uM.

Compound	effect on the modest inhibitory effect of IFN-γ on C. muridarum replication (C. muridarum; C57epi.1 pretreated with IFN-γ, no T cells)	block of IFN-γ-induced NO (iNOS; infected C57epi.1 cells, nitrite in supernatants) [%]	C. muridarum replication in control wells (no T cells) (C. muridarum; C57epi.1 pretreated with IFN-γ 14 h prior to infection, pooled means from two experiments)	C. muridarum replication in control wells (no T cells) (C. muridarum; IFN-γ added at the time of infection)	effect on C. muridarum titrations done on McCoy monolayers (C. muridarum; all concentrations tested (up to 1000 ρg/ml))	induction of NO production in C57epi.1 epithelial cells (iNOS; IFN-γ 10 ηg/ml × 14 hours, infected, p<0.0001)
CC(=N)NCCCC[C@H](N)C(=O)O.Cl [NIL, L-N^6-(1-iminoethyl)lysine hydrocholoride]	reversed	~60	–	–	–	–
IFN-γ: Recombinant murine IFN-γ (R&D Systems)	–	–	4±2×10^6 IFU/well	5±1×10^6 IFU/well	no effect	roughly 6 fold
